Experimental data reported in US20250288704A1, “CXCR4-LIGANDS FOR DIAGNOSTIC AND THERAPEUTIC USE AND PRECURSORS THEREOF” (priority 2021, published 2025).
Where two headings read alike, the source gives them in different places. Starred links: 1 amine or outer side, 2 acyl side, 3 side chain; linkers in the order of their positions; H or OH if unused. Positions of bridges follow the written chain, without caps; N, C: chain ends. Non-standard residues stand in square brackets, D forms with d. Residues, ends and D or L forms follow the SMILES beside them. Groups on a side chain read outwards from the residue. Chains are numbered I, II in the order given. *: point of attachment. X6 = CN1/C(=C/C=C/C=C/C2=[N+](CCCCCC(=O)*)c3ccc(S(=O)(=O)[O-])cc3C2(C)C)C(C)(C)c2cc(S(=O)(=O)O)ccc21; X2 = OC[C@H]1O[C@@H](O[C@H]2[C@H](O)[C@@H](O)[C@H](*)O[C@@H]2CO)[C@H](O)[C@@H](O)[C@H]1O; X7 = O=C(O)CN1CCN(CC(=O)O)CCN([C@H](CCC(=O)*)C(=O)O)CCN(CC(=O)O)CC1; Benzoyl(4-SiFtBu2) = CC(C)(C)[Si](F)(c1ccc(C(=O)*)cc1)C(C)(C)C; X5 = CC(C)(C)[Si](F)(c1ccc(C[N+](C)(C)CC(=O)*)cc1)C(C)(C)C; DOTA = O=C(O)CN1CCN(CC(=O)O)CCN(CC(=O)*)CCN(CC(=O)O)CC1; d(γGlu) = O=C(O)[C@@H](CCC(=O)[*:2])N[*:1]; Tyr(3-I) = N[C@@H](Cc1ccc(O)c(I)c1)C(=O)O; 2Nal = N[C@@H](Cc1ccc2ccccc2c1)C(=O)O; d2Nal = N[C@H](Cc1ccc2ccccc2c1)C(=O)O; dNMeOrn = CN[C@H](CCCN)C(=O)O; d(hCys) = N[C@H](CCS)C(=O)O; 4Amb = NCc1ccc(C(=O)O)cc1; 4Abz = Nc1ccc(C(=O)O)cc1; dDap = NC[C@@H](N)C(=O)O; CO = O=C([*:1])[*:2]; Ahx = NCCCCCC(=O)O

Columns and labels:
CXCR4 = CXCR4 (Homo sapiens, UniProt P61073); assay: Determination of IC50: competition with 125I-Fc-131 on CXCR4-positive Jurkat cells; assay type: binding; set-up: CXCR4-positive Jurkat T lymphocyte cells were grown in Gibco's RPMI 1640 GlutaMAX medium; endogenous in cells; host or cells: Jurkat T lymphocyte cells (whole cells in suspension, 400.000 per tube);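 further: test compound at 10^−5 to 10^−11 M competed for 2 h at 8 °C with the radioligand on 400,000 cells per well, bound versus free activity measured by γ-counting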
Sequence of CXCR4 (P61073 whole entry): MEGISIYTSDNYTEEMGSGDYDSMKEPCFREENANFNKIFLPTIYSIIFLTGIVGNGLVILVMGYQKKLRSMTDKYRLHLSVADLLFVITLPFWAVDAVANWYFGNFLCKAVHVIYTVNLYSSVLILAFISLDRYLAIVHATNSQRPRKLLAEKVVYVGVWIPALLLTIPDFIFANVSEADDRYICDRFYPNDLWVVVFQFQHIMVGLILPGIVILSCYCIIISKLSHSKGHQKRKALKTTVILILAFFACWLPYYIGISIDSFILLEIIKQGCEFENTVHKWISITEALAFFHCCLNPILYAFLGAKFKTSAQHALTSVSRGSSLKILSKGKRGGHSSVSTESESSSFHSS

[1] = system: CXCR4-expressing Chem_1 cells; assay: Determination of internalization, dual tracer with 125I-Fc-131; assay type: cell-based; conditions: for Cell-bound [%] / Internalized [%]: of total cellular activity
Experimental: CXCR4-expressing Chem_1 cells were grown in DMEM-F12 medium supplemented with 10 vol % FBS, 1 vol % NEA, 1 vol % PenStrep and 1 vol % HEPES (1.00 M). Cells were maintained in a 5% CO2 atmosphere at 37° C.
For in vitro experiments, cells were harvested by removal of the medium and incubation of the cells with trypsine/EDTA (0.05%/0.02%; w/v) for 30 in at 37° C.
Each well (n=3 for every time point) was either treated with 25 μL DMEM-F12 (+5 wt % BSA) or 25 μL of an AMD3100 stock (1 mM in H2O) for blockage of the receptors.
The experiment was stopped by placing the well-plate on ice and removing the supernatant. The cells were washed with 250 μL cold HBSS and the both fractions for each well combined, comprising the amount of unbound radioligand.
The supernatant was removed, the cells washed with cold HBSS and the respective fractions combined to obtain the amount of surface-bound radioligand.
The cells were then incubated with 300 μL NaOH (1.00 M in H2O) for at least 30 at r.t. before the supernatant was removed. The well was washed with another 300 μL NaOH and the fractions combined that contain the amount of internalized radioligand.
The three different fractions were subjected to activity measurement in the γ-counter, measuring the activity of the radionuclide used for the labeling of the peptide under investigation first. […] Data was corrected for non-specific internalization and referred to the specific internalization of the standard ligand

[2] = Octanol/PBS partition coefficient (logD7.4); assay type: physicochemical; conditions: n-octanol/PBS pH 7.4, radiolabeled compound
Experimental: The tubes were vortexed at maximum speed for 3 min to ensure equilibrium before centrifugation at 15.000×g for 5 min on a Biofuge 15 from Heraeus Holding GmbH (Osterode, Germany). An aliquot of 100 μL of each fraction was measured in the γ-counter and the log D7.4 calculated as follows: […]

[3] = Biodistribution in Jurkat tumor-bearing CB-17 SCID mice; assay type: in vivo; conditions: female, CB-17 SCID, mouse, in vivo, iv, total radioactivity, 1 h p.i., Jurkat xenograft, CB-17 SCID female mice
Experimental: All animal experiments were conducted in accordance with general animal welfare regulations in Germany and the institutional guidelines for the care and use of animals. To establish tumor xenografts, Jurkat cells (2-3×10^7 cells) were suspended in a mixture of Gibco's RPMI 1640 medium and Matrigel (1/1; v/v) from BD Biosciences (Heidelberg, Germany), and inoculated subcutaneously onto the right shoulder of 6-10 weeks old CB17-SCID mice from either Charles River GmbH (Sulzfeld, Germany) or the in-house mouse breeding facility. Mice were used when tumors had grown to a diameter of 5-8 mm (4-10 weeks after inoculation).
Approximately 0.5-20 MBq (0.02-0.20 nmol) of the ^125I-, ^177Lu-, ^99mTc-, ^18F- or ^68Ga-labeled ligand were injected into the tail vein of Jurkat tumor-bearing CB-17 SCID mice and the animals sacrificed after the respective biodistribution time. Selected organs were removed, weighted and measured in a γ-counter.

[4] = unlabeled or cold (natGa/natLu) compound vs 125I-Fc-131, Jurkat cells

C[C@@H](NC(=O)[C@@H](CCCNC(=N)N)NC(=O)[C@@H](CN)NC(=O)CN1CCN(CC(=O)O)CCN(CC(=O)O)CCN(CC(=O)O)CC1)C(=O)NCc1ccc(C(=O)NCCC[C@@H]2C(=O)N[C@@H](CCCNC(=N)N)C(=O)N[C@@H](Cc3ccc4ccccc4c3)C(=O)NCC(=O)N[C@H](Cc3ccc(O)cc3)C(=O)N2C)cc1 [CXCR4-DOTA-1 [Lu]] (cyclo([dY][dNMeOrn]([4Amb-dA-dR-dDap-DOTA])R[2Nal]G))
IC50 (CXCR4; unlabeled or cold (natGa/natLu) compound vs 125I-Fc-131, Jurkat cells, read-out: IC50): 5.05 ± 1.75 nM
Internalized in relation to 125I-Fc-131 [%] ([1]; 15 min): 78.3 ± 6.93%
Cell-bound [%] ([1]; 15 min): 4.27 ± 0.38%
Internalized [%] ([1]; 15 min): 2.61 ± 0.20%
Internalized in relation to 125I-Fc-131 [%] ([1]; 30 min): 95.0 ± 9.39%
Cell-bound [%] ([1]; 30 min): 4.43 ± 0.08%
Internalized [%] ([1]; 30 min): 3.28 ± 0.27%
Internalized in relation to 125I-Fc-131 [%] ([1]; 60 min): 109 ± 24.6%
Cell-bound [%] ([1]; 60 min): 6.02 ± 0.67%
Internalized [%] ([1]; 60 min): 5.04 ± 0.92%
Internalized in relation to 125I-Fc-131 [%] ([1]; 120 min): 133 ± 7.31%
Internalization [% Fc-131] 2 h ([1]; 2 h, 177Lu-labeled): 133 % Fc-131
Cell-bound [%] ([1]; 120 min): 4.97 ± 0.31%
Internalized [%] ([1]; 120 min): 7.08 ± 0.22%
logD7.4 [2]: −3.41 ± 0.05 (6)

CC[C@H](C)[C@@H]([C@@H](CC(=O)N1CCC[C@H]1[C@H](OC)[C@@H](C)C(=O)N[C@H](C)[C@@H](O)c1ccccc1)OC)N(C)C(=O)[C@@H](NC(=O)[C@H](C(C)C)N(C)C(=O)OCc1ccc(NC(=O)[C@H](CCCNC(N)=O)NC(=O)[C@@H](NC(=O)CCCCCN2C(=O)CC(SCC[C@@H](N)C(=O)N[C@H](Cc3c[nH]cn3)C(=O)N[C@H](CCCNC(=N)N)C(=O)N[C@H](C)C(=O)Nc3ccc(C(=O)NCCC[C@@H]4C(=O)N[C@@H](CCCNC(=N)N)C(=O)N[C@@H](Cc5ccc6ccccc6c5)C(=O)NCC(=O)N[C@H](Cc5ccc(O)cc5)C(=O)N4C)cc3)C2=O)C(C)C)cc1)C(C)C (stereo partly drawn) [CXCR4-MMAE-3]
IC50 (CXCR4): 43.9 ± 6.18 nM
Internalization 2 h [% of bound peptide] ([1]; 2 h, 125I-labeled): 24.9 ± 0.85 % of bound peptide
logD7.4 [2]: 0.80 ± 0.12 (6)

C[C@@H](NC(=O)[C@@H](CCCNC(=N)N)NC(=O)[C@@H](CN)NC(=O)CCCCC[N+]1=C(/C=C/C=C/C=C2/N(C)c3ccc(S(=O)(=O)O)cc3C2(C)C)C(C)(C)c2cc(S(=O)(=O)[O-])ccc21)C(=O)Nc1ccc(C(=O)NCCC[C@@H]2C(=O)N[C@@H](CCCNC(=N)N)C(=O)N[C@H](Cc3ccc4ccccc4c3)C(=O)NCC(=O)N[C@@H](Cc3ccc(O)c(I)c3)C(=O)N2C)cc1 [CXCR4-OI-2] (cyclo([Tyr(3-I)][dNMeOrn]([4Abz-dA-dR-dDap-X6])R[d2Nal]G))
IC50 (CXCR4; [4]): 10.2 ± 3.95 nM
tissue uptake at 1 h ([3]; Blood, read-out: % iD/g Blood): 1.73 %ID/g
tissue uptake at 1 h ([3]; Bone, read-out: % iD/g Bone): 1.2 %ID/g
tissue uptake at 1 h ([3]; Heart, read-out: % iD/g Heart): 1.84 %ID/g
tissue uptake at 1 h ([3]; Intestine, read-out: % iD/g Intestine): 1.88 %ID/g
tissue uptake at 1 h ([3]; Kidney, read-out: % iD/g Kidney): 13.9 %ID/g
tissue uptake at 1 h ([3]; Liver, read-out: % iD/g Liver): 35.3 %ID/g
tissue uptake at 1 h ([3]; Lung, read-out: % iD/g Lung): 5.54 %ID/g
tissue uptake at 1 h ([3]; Muscle, read-out: % iD/g Muscle): 0.41 %ID/g
tissue uptake at 1 h ([3]; Pancreas, read-out: % iD/g Pancreas): 1.1 %ID/g
tissue uptake at 1 h ([3]; Spleen, read-out: % iD/g Spleen): 16.1 %ID/g
tissue uptake at 1 h ([3]; Stomach, read-out: % iD/g Stomach): 4.01 %ID/g
tissue uptake at 1 h ([3]; Thyroid, read-out: % iD/g Thyroid): 1.46 %ID/g
tissue uptake at 1 h ([3]; Tumor, read-out: % iD/g Tumor): 1.1 %ID/g
logD7.4 [2]: −1.83 ± 0.02 (5)

C[C@@H](NC(=O)[C@@H](CCCNC(=N)N)NC(=O)[C@@H](CN)NC(=O)CCCCCNC(=O)[C@@H](CNC(=O)CC[C@H](C(=O)O)N1CCN(CC(=O)O)CCN(CC(=O)O)CCN(CC(=O)O)CC1)NC(=O)[C@@H](CNC(=O)c1ccc([Si](F)(C(C)(C)C)C(C)(C)C)cc1)NC(=O)CC[C@@H](NC(=O)N[C@H](CCC(=O)O)C(=O)O)C(=O)O)C(=O)Nc1ccc(C(=O)NCCC[C@@H]2C(=O)N[C@@H](CCCNC(=N)N)C(=O)N[C@@H](Cc3ccc4ccccc4c3)C(=O)NCC(=O)N[C@H](Cc3ccc(O)cc3)C(=O)N2C)cc1 [CXCR4-SiFA-5 [Lu]] (I: {dE-CO-d(γGlu)}-[dDap](Benzoyl(4-SiFtBu2))[dDap](X7)[Ahx][dDap][dR][dA][4Abz] / II: cyclo([dY][dNMeOrn]R[2Nal]G); amide I:C-II:2)
IC50 (CXCR4; [4]): 45.8 ± 17.4 nM
logD7.4 [2]: −1.73 ± 0.05 (6)

C[C@@H](NC(=O)[C@@H](CCCNC(=N)N)NC(=O)[C@@H](CN)NC(=O)CCCCCNC(=O)[C@@H](CNC(=O)CC[C@H](C(=O)O)N1CCN(CC(=O)O)CCN(CC(=O)O)CCN(CC(=O)O)CC1)NC(=O)C[N+](C)(C)Cc1ccc([Si](F)(C(C)(C)C)C(C)(C)C)cc1)C(=O)Nc1ccc(C(=O)NCCC[C@@H]2C(=O)N[C@@H](CCCNC(=N)N)C(=O)N[C@@H](Cc3ccc4ccccc4c3)C(=O)NCC(=O)N[C@H](Cc3ccc(O)cc3)C(=O)N2C)cc1 [CXCR4-SiFA-6 [Lu]]
IC50 (CXCR4; [4]): 8.29 ± 3.11 nM
logD7.4 [2]: −0.85 ± 0.04 (6)

C[C@@H](NC(=O)[C@@H](CCCNC(=N)N)NC(=O)[C@@H](CN)NC(=O)CCCCCNC(=O)[C@@H](CNC(=O)CN1CCN(CC(=O)O)CCN(CC(=O)O)CCN(CC(=O)O)CC1)NC(=O)[C@@H](CCS[C@@H]1O[C@H](CO)[C@@H](O[C@@H]2O[C@H](CO)[C@H](O)[C@H](O)[C@H]2O)[C@H](O)[C@H]1O)NC(=O)C[N+](C)(C)Cc1ccc([Si](F)(C(C)(C)C)C(C)(C)C)cc1)C(=O)Nc1ccc(C(=O)NCCC[C@@H]2C(=O)N[C@@H](CCCNC(=N)N)C(=O)N[C@@H](Cc3ccc4ccccc4c3)C(=O)NCC(=O)N[C@H](Cc3ccc(O)cc3)C(=O)N2C)cc1 [CXCR4-SiFA-7 [Lu]] (I: X5-[d(hCys)](X2)[dDap](DOTA)[Ahx][dDap][dR][dA][4Abz] / II: cyclo([dY][dNMeOrn]R[2Nal]G); amide I:C-II:2)
IC50 (CXCR4; [4]): 6.05 ± 1.17 nM
logD7.4 [2]: −2.23 ± 0.11 (7)
